This is an account of results in ChEMBL document CHEMBL4665727, “Discovery of biphenyl pyrazole scaffold for neurodegenerative diseases: A novel class of acetylcholinesterase-centered multitargeted ligands” (Bioorg Med Chem Lett, 2020).

The test system of one data set is SH-SY5Y. Briefly: Protection against amyloid beta oligomer-induced cytotoxicity in human SH-SY5Y cells expressing wild-type Tau assessed as cell viability at 10 uM by MTT assay. The data set is classed as functional. The conditions noted are these: read-out: Activity.
Data set [1] deals with T1, Acetylcholinesterase (Homo sapiens, UniProt P22303). Briefly: Binding affinity to AChE (unknown origin) assessed as dissociation constant by SPR analysis.
The test system of a further data set is HEL 299. Briefly: Cytotoxicity against HEL 299 cells by MTT assay. The conditions noted are these: human. The data set is classed as cell-based.
Data set [2] is described as follows: Permeability in human Caco-2 cells. The data set is classed as ADME, cell-based.
The nature of data set [3]: Stability of compound in intestinal juice.
The nature of data set [4]: Metabolic stability in human plasma. The data set is classed as ADME, cell-free.
Data set [5] is described as follows: Permeability of compound by PAMPA-BBB assay.
Data set [6] in a line: Stability of compound in gastric fluid. The data set is classed as physicochemical. The conditions noted are these: simulated gi fluid.
Data set [7] concerns the target T2, Microtubule-associated protein tau (Homo sapiens, UniProt P10636). Briefly: Binding affinity to tau (unknown origin) assessed as dissociation constant by microscale thermophoresis assay.
For data set [8], the target named is T2, Microtubule-associated protein tau. Briefly: Binding affinity to tau (unknown origin) assessed as dissociation constant by isothermal titration calorimetry.
The target is the same in data set [9]. Briefly: Binding affinity to tau (unknown origin) assessed as exothermal interaction by isothermal titration calorimetry.
For data set [10] the target is unchanged. Briefly: Binding affinity to tau (unknown origin) assessed as dissociation constant by SPR analysis.
The target is the same in data set [11]. Briefly: Inhibition of tau oligomerization in human […] cells by TR-FRET assay. The data set is classed as cell-based.
The target of data set [12] is T1, Acetylcholinesterase. Briefly: Mixed inhibition of AChE (unknown origin) using acetylthiocholine iodide as substrate by UV-vis spectrophotometry based Lineweaver-burk plot analysis.
Data set [13] has as its target T1, Acetylcholinesterase. Briefly: Inhibition of AChE (unknown origin) using acetylthiocholine iodide as substrate by UV-vis spectrophotometry based Ellman's method.

pEC50, pIC50, pKd: −log10 of the molar value. Active and inactive are the calls of the source. The rule behind the calls is not given here.

T1 sequence (P22303 whole entry): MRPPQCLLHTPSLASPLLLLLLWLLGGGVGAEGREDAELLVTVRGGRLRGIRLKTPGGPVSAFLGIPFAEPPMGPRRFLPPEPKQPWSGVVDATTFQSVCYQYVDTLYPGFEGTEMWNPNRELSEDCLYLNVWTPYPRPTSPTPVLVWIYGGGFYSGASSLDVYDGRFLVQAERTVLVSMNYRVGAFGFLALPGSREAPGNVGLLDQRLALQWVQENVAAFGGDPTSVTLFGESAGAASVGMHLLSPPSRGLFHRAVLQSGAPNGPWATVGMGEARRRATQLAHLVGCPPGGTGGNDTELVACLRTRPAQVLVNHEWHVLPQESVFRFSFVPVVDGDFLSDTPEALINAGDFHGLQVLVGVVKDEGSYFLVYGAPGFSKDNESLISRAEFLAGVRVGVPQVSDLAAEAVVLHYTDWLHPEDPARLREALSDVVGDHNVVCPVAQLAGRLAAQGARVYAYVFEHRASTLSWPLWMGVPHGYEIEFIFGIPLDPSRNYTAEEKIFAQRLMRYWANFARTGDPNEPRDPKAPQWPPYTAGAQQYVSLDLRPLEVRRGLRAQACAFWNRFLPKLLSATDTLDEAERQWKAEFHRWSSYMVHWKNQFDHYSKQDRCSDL
T2 sequence (P10636 whole entry): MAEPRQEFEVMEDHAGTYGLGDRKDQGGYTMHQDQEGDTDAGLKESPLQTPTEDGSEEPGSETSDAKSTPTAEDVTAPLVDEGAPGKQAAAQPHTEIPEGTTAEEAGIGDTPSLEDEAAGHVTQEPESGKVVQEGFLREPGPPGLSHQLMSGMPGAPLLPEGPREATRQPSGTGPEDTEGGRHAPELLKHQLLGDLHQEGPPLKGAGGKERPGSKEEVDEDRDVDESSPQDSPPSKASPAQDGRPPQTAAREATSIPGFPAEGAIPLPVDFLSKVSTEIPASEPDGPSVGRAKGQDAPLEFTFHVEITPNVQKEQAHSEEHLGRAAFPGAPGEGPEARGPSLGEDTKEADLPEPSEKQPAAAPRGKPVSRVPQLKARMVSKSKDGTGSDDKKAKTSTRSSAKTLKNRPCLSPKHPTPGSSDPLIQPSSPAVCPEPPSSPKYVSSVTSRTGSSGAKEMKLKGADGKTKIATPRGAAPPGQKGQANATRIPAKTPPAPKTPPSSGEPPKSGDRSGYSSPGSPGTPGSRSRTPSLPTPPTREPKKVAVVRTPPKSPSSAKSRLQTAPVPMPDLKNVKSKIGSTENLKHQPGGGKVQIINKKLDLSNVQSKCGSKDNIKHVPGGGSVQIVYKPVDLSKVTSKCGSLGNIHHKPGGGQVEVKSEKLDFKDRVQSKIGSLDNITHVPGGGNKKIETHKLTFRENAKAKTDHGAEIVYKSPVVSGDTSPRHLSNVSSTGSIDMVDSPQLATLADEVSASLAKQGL

Turning to `CN(C)c1ccc2c(c1)Sc1cc(N(C)C)ccc1N2` [HYDROMETHYLTHIONINE], the viability at 10 µM in the data set with SH-SY5Y was 32.1%.
Take `CC(C)c1ccc2c(c1)c(SC(C)(C)C)c(CC(C)(C)C(=O)O)n2Cc1ccc(Cl)cc1`: the viability at 10 µM with SH-SY5Y worked out at 52.4%.
Still for that read-out and setting: the same measure for `Nc1c2c(nc3ccccc13)CCCC2` [TACRINE]: 29.5%.
For the compound `CCn1cc(CNCc2c[nH]nc2-c2ccc(-c3ccccc3)cc2)cn1`, the negative-log Kd (pKd) on Acetylcholinesterase [1] was 5.85; in data set [7], 6.04; in [8], 6.07; in [10], 6.23. Moreover, the Activity entry in the data set on HEL 299 is reported as “Non-Toxic”. In addition, the permeability result in data set [2] was “Permeable”. Moreover, in [3], the Stability entry is reported as “Stable”. Also, the Stabilty entry in data set [4] and in data set [6] was “Stable” throughout. Further, in data set [5], the Papp was 33.5 ×10⁻⁶ cm/s. The viability at 10 µM with SH-SY5Y was 75.1%. Besides, in data set [9], the deltaH was -36900 cal/mol. In data set [11], this compound gave a pEC50 of 6.60. Further, at Acetylcholinesterase [12], the inhibition result was “Active”. In addition, at Acetylcholinesterase [13], the pIC50 is 6.46.
Consider `COc1cc2c(cc1OC)C(=O)C(CC1CCN(Cc3ccccc3)CC1)C2` (centres undefined) [DONEPEZIL], for which the viability at 10 µM in the data set on SH-SY5Y was found to be 39.3%.
